Assay results from PubChem BioAssay (NCI).
Values joined by “and” are separate entries in the source; they are usually repeats but may differ in a detail not shown here. Equal values may be shown once.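 Briefly, cells in 96-well plates were exposed to five compound concentrations for 48 h, and endpoints were estimated by linear interpolation. GI50 = concentration required for 50% inhibition of growth. TGI is the concentration that stops growth completely.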 Where a SMILES comes first, the peptide text is derived from it. [ ]: non-standard residue; d: D form. Ac5c = NC1(C(=O)O)CCCC1

test system: KM12 colon; test: NCI anticancer screen, dose series, 48 h

| Compound | GI50 [µM] | TGI [µM] |
| --- | --- | --- |
| CCN1CCN(C(=O)[C@]23CC[C@@H](C)[C@H](C)[C@@H]2C2=CC[C@@H]4[C@@]5(C)C/C(=C/c6ccncc6)C(=O)C(C)(C)[C@@H]5CC[C@@]4(C)[C@]2(C)CC3)CC1 | 1.87 | 3.66 |
| Cc1cc(C)c([O-])c(CN(C)CCN(C)Cc2cc(C)cc(C)c2[O-])c1.O=C([O-])c1cccc(C(=O)[O-])n1.[Ti+4] | 3.36 | > 100 |
| NC1(C(=O)NC2(C(=O)O)CCCC2)CCCC1 (H-[Ac5c]-[Ac5c]-OH) | – | > 100 |
| CCOC(=O)C(Cc1c[nH]c2ccc(N)cc12)(NC(C)=O)C(=O)OCC | > 1000 | > 1000 |
| CN1CCN(CCCN)CC1 | – | > 100 |
| CC(=O)Nc1ccc(C(=O)NN2C(=O)C(Cl)C2c2ccc(Cl)cc2)cc1 (stereo not drawn) | – | > 100 |
| Nc1ccc(N(S(=O)(=O)c2ccccc2)S(=O)(=O)c2ccccc2)c(Cl)c1 | – | > 100 |
| CC(O)c1cccc(NCc2c3ccccc3c(=O)n3c2oc2ccccc23)c1 (stereo not drawn) | 13.4 | > 100 |
| O=c1c2c(nc3n1CCS3)[nH]c1ccccc12 | > 100 | > 100 |
| CSc1nc(C)c2c(n1)SCC2 | – | > 10 |
| CC1=C2[C@@H](CC1)[C@]1(C)O[C@@](C3CCCCC3)(C[C@H]1OC(=O)CO)[C@H]2OC(=O)/C=C/c1ccccc1 | 8.34 | 24.7 |
| O=C(O[C@H]1CN[C@H](C#Cc2cc3ncnc(Nc4ccc5c(ccn5Cc5cc(F)ccc5F)c4)c3s2)C1)N1CCOCC1 | 4.57 | 9.25 |
| O=c1c(Oc2ccc(F)cc2F)cc2cnc(NC3CCOCC3)nc2n1C1CCS(=O)(=O)CC1 | > 25 | > 25 |
| C=CCC(N[C@H](CO)c1ccccc1)c1ccc2ccccc2n1 (stereo partly drawn) | > 100 | > 100 |
| COC(=O)c1cc2c(cc1Cl)SC(N(N(C)C)S(=O)(=O)c1ccc(Br)s1)=NS2(=O)=O | 24.8 | 74.4 |

test system: LOX IMVI melanoma; test: NCI anticancer screen, dose series, 48 h

| Compound | GI50 [µM] | TGI |
| --- | --- | --- |
| COc1cc(/C=C/C(=O)CC(=O)/C=C/c2cc(OC)c(OC)c(OC)c2)cc(OC)c1OC | 2.19 | 9.14 µM |
| COc1cc2c(cc1OCCCOc1cc3c(cc1OC)C(=O)N1C[C@H](F)C[C@H]1C=N3)N=C[C@@H]1C[C@@H](F)CN1C2=O | 2.41 | 10.5 µM |
| CO[C@@H]1/C=C\C=C(/C)C(=O)NC2=CC(=O)C(NCCN(C)C)=C(C[C@@H](C)C[C@@H](OC)[C@@H](O)[C@H](C)/C=C(\C)[C@H]1OC(N)=O)C2=O | < 0.013 | 0.379 µM |
| COc1ccc(CN(C)c2ccc(CO)c(Cl)c2)cc1 | 27.9 | > 100 µM |
| O=C1Nc2ccc(C(=O)c3ccco3)cc2/C1=C/c1cc(Cl)c(O)c(Cl)c1 | 1.78 | 15.3 µM |
| O=c1ccn(C2OC(CO)C(O)C2F)c(=O)[nH]1 (stereo not drawn) | > 1000 | > 1000 µM |
| CC(=O)[O-].CC(=O)[O-].[Pt+2].c1cscn1.c1cscn1 | 65.7 | > 100 µM |
| Cn1c([N+](=O)[O-])cnc1/C=C1\Oc2ccccc2C1=O | 0.176 | 0.506 µM |
| COc1cc(OC)cc(C2CC(=O)Nc3c2c(C)nn3-c2nc3ccccc3[nH]2)c1 (stereo not drawn) | 2.09 | 4.44 µM |
| Cc1c[nH]c2c(O)cc3c(c12)[C@H](CCl)CN3C(=O)c1cc2cc(NC(=O)Nc3ccc4[nH]c(C(=O)N5C[C@@H](CCl)c6c5cc(O)c5[nH]cc(C)c65)cc4c3)ccc2[nH]1 | 0.00117 | – |
| CCN(CC)CCCC(C)Nc1c2ccc(Cl)cc2nc2ccc(OC)cc12 (stereo not drawn) | 1.52 | 3.56 µM and 2.57 µM |
| COc1ccc([N+](=O)[O-])c2c(NCCCN(C)C)c3ccccc3nc12 | – | 5.11 µM |
| CCN1CCN(C(=O)[C@]23CC[C@@H](C)[C@H](C)[C@@H]2C2=CC[C@@H]4[C@@]5(C)C/C(=C/c6ccncc6)C(=O)C(C)(C)[C@@H]5CC[C@@]4(C)[C@]2(C)CC3)CC1 | 1.51 | 2.98 µM |
| NC1(C(=O)NC2(C(=O)O)CCCC2)CCCC1 (H-[Ac5c]-[Ac5c]-OH) | – | > 100 µM |
| CCOC(=O)C(Cc1c[nH]c2ccc(N)cc12)(NC(C)=O)C(=O)OCC | > 1000 | > 1000 µM |
| CN1CCN(CCCN)CC1 | – | > 100 µM |
| Nc1ccc(N(S(=O)(=O)c2ccccc2)S(=O)(=O)c2ccccc2)c(Cl)c1 | – | > 100 µM |
| CC(O)c1cccc(NCc2c3ccccc3c(=O)n3c2oc2ccccc23)c1 (stereo not drawn) | 8.02 | 36 µM |
| O=c1c2c(nc3n1CCS3)[nH]c1ccccc12 | 59.5 | > 100 µM |
| CSc1nc(C)c2c(n1)SCC2 | – | > 10 µM |
| CC1=C2[C@@H](CC1)[C@]1(C)O[C@@](C3CCCCC3)(C[C@H]1OC(=O)CO)[C@H]2OC(=O)/C=C/c1ccccc1 | 5.31 | 11.2 µM |
| O=C(O[C@H]1CN[C@H](C#Cc2cc3ncnc(Nc4ccc5c(ccn5Cc5cc(F)ccc5F)c4)c3s2)C1)N1CCOCC1 | 3.5 | 9.28 µM |
| O=c1c(Oc2ccc(F)cc2F)cc2cnc(NC3CCOCC3)nc2n1C1CCS(=O)(=O)CC1 | > 25 | > 25 µM |
| C=CCC(N[C@H](CO)c1ccccc1)c1ccc2ccccc2n1 (stereo partly drawn) | > 100 | > 100 µM |
| COC(=O)c1cc2c(cc1Cl)SC(N(N(C)C)S(=O)(=O)c1ccc(Br)s1)=NS2(=O)=O | 17.5 | 31.8 µM |

test system: MCF7 breast; test: NCI anticancer screen, dose series, 48 h

| Compound | GI50 [µM] | TGI |
| --- | --- | --- |
| COc1cc(/C=C/C(=O)CC(=O)/C=C/c2cc(OC)c(OC)c(OC)c2)cc(OC)c1OC | 2.13 | > 100 µM |
| COc1cc2c(cc1OCCCOc1cc3c(cc1OC)C(=O)N1C[C@H](F)C[C@H]1C=N3)N=C[C@@H]1C[C@@H](F)CN1C2=O | 3.09 | 18.1 µM |
| CO[C@@H]1/C=C\C=C(/C)C(=O)NC2=CC(=O)C(NCCN(C)C)=C(C[C@@H](C)C[C@@H](OC)[C@@H](O)[C@H](C)/C=C(\C)[C@H]1OC(N)=O)C2=O | – | 1.88 µM and 3.8 µM |
| COc1ccc(CN(C)c2ccc(CO)c(Cl)c2)cc1 | 0.892 | > 64.9 µM |
| O=C1Nc2ccc(C(=O)c3ccco3)cc2/C1=C/c1cc(Cl)c(O)c(Cl)c1 | 6.1 | > 25 µM |
| O=c1ccn(C2OC(CO)C(O)C2F)c(=O)[nH]1 (stereo not drawn) | > 1000 | > 1000 µM |
| CC(=O)[O-].CC(=O)[O-].[Pt+2].c1cscn1.c1cscn1 | 37.3 | > 100 µM |
| Cn1c([N+](=O)[O-])cnc1/C=C1\Oc2ccccc2C1=O | 0.46 | 8.88 µM |
| COc1cc(OC)cc(C2CC(=O)Nc3c2c(C)nn3-c2nc3ccccc3[nH]2)c1 (stereo not drawn) | 2.94 | > 100 µM |
| Cc1c[nH]c2c(O)cc3c(c12)[C@H](CCl)CN3C(=O)c1cc2cc(NC(=O)Nc3ccc4[nH]c(C(=O)N5C[C@@H](CCl)c6c5cc(O)c5[nH]cc(C)c65)cc4c3)ccc2[nH]1 | – | 21.9 µM and 0.00887 µg/mL and 8.88 µg/mL |
| CCN(CC)CCCC(C)Nc1c2ccc(Cl)cc2nc2ccc(OC)cc12 (stereo not drawn) | 2.33 | 8.04 µM and 10.7 µM |
| COc1ccc([N+](=O)[O-])c2c(NCCCN(C)C)c3ccccc3nc12 | – | 0.203 µM |
| CCN1CCN(C(=O)[C@]23CC[C@@H](C)[C@H](C)[C@@H]2C2=CC[C@@H]4[C@@]5(C)C/C(=C/c6ccncc6)C(=O)C(C)(C)[C@@H]5CC[C@@]4(C)[C@]2(C)CC3)CC1 | 1.57 | 3.2 µM |
| Cc1cc(C)c([O-])c(CN(C)CCN(C)Cc2cc(C)cc(C)c2[O-])c1.O=C([O-])c1cccc(C(=O)[O-])n1.[Ti+4] | 3.17 | > 100 µM |
| NC1(C(=O)NC2(C(=O)O)CCCC2)CCCC1 (H-[Ac5c]-[Ac5c]-OH) | – | > 100 µM |
| CCOC(=O)C(Cc1c[nH]c2ccc(N)cc12)(NC(C)=O)C(=O)OCC | > 1000 | > 1000 µM |
| CN1CCN(CCCN)CC1 | – | > 100 µM |
| CC(=O)Nc1ccc(C(=O)NN2C(=O)C(Cl)C2c2ccc(Cl)cc2)cc1 (stereo not drawn) | – | > 100 µM |
| Nc1ccc(N(S(=O)(=O)c2ccccc2)S(=O)(=O)c2ccccc2)c(Cl)c1 | – | > 100 µM |
| CC(O)c1cccc(NCc2c3ccccc3c(=O)n3c2oc2ccccc23)c1 (stereo not drawn) | > 100 | > 100 µM |
| O=c1c2c(nc3n1CCS3)[nH]c1ccccc12 | > 100 | > 100 µM |
| CSc1nc(C)c2c(n1)SCC2 | – | > 10 µM |
| CC1=C2[C@@H](CC1)[C@]1(C)O[C@@](C3CCCCC3)(C[C@H]1OC(=O)CO)[C@H]2OC(=O)/C=C/c1ccccc1 | 3.09 | 13.4 µM |
| O=C(O[C@H]1CN[C@H](C#Cc2cc3ncnc(Nc4ccc5c(ccn5Cc5cc(F)ccc5F)c4)c3s2)C1)N1CCOCC1 | 4.13 | > 14.5 µM |
| O=c1c(Oc2ccc(F)cc2F)cc2cnc(NC3CCOCC3)nc2n1C1CCS(=O)(=O)CC1 | > 25 | > 25 µM |
| COC(=O)c1cc2c(cc1Cl)SC(N(N(C)C)S(=O)(=O)c1ccc(Br)s1)=NS2(=O)=O | 22.4 | 44.7 µM |
